Data reported in PMC11157491, “Novel Alaninamide Derivatives with Drug-like Potential for Development as Antiseizure and Antinociceptive Therapies—In Vitro and In Vivo Characterization” (ACS Chemical Neuroscience, 2024).
Where two headings read alike, the source gives them in different places.

What was measured:
mice [1] = test: Subcutaneous pentylenetetrazole (scPTZ) seizure test; format: in vivo; details: 100 mg/kg i.p.; for scPTZ: number of mice protected/number of mice tested: 0.5 h
Source text: (§1) These parameters were then used to calculate the protective indexes (PIs, PI = TD50/ED50), which describe the therapeutics window of potential drug candidates. The ED50, TD50, and PI values for the tested compounds together with data of their chemical prototypes KA-11 and KJ-5 and reference ASMs are summarized in Table 2.
(§2) In the initial screening studies, four mice per group were randomly assigned to each experimental group (each mouse was used only once). To evaluate the ED50 or TD50 values, four groups consisting of eight animals were injected with various doses of tested compounds. The protective indexes (PIs) for the compounds investigated and reference ASMs were calculated by dividing the TD50 value, as determined in the chimney test, by the respective ED50 value, as determined in the MES, scPTZ, or 6 Hz (32 or 44 mA) tests (PI = TD50/ED50). The PIs are a measure of the potential therapeutic window of the tested agent.
(§3) All substances were suspended in Tween 80 (1% aqueous solution) and administered i.p. as a single injection at a dose of 10 mL/kg. On each day of experimentation, fresh solutions were prepared. The detailed in vivo procedures are described elsewhere: the maximal electroshock seizure test (MES),[60] the subcutaneous pentylenetetrazole seizure test (scPTZ),[61] the 6 Hz psychomotor seizure model (32 and 44 mA),[62] and the chimney test.[63] The reference ASMs were purchased from commercial suppliers: VPA (Sigma-Aldrich, St. Louis, MO), LCS, and LEV (UCB Pharma, Braine l’Alleud, Belgium).

mice [2] = test: 6 Hz (32 mA) psychomotor seizure model; format: in vivo; details: Mus musculus, ip; for responders at 100 mg/kg: 100 mg/kg i.p., 0.5 h; for ED50: mice, pretreatment 0.5 h
Source text: Identification and profiling of new ASM candidate compounds are still largely based on predictive animal models of seizures/epilepsy, while a range of in silico and in vitro approaches (i.e., molecular modeling or high throughput screening, etc.) are increasingly used in the early stages of ASM discovery.[31] The Epilepsy Therapy Screening Program (ETSP) of the National Institute of Neurological Disorders and Stroke (NIH, Bethesda, MD) has enabled the discovery of several approved ASMs by focusing on the in vivo testing of compounds synthesized by both academic laboratories and industry.[32] The ETSP provides a broad panel of seizure tests (ca. 30 rodent models), but a subset of them is used for the initial screening of new compounds with potential antiseizure activity. The routinely used seizure models include: (i) the MES test, which is an experimental model of tonic–clonic seizures, (ii) the 6 Hz model (32 mA) of focal seizures, and (iii) the scPTZ model of generalized absence or myoclonic seizures.[33],[34] Consequently, in the current studies, all final compounds 21–36 and 45–48 were initially studied in the MES and the 6 Hz (32 mA) seizure models after intraperitoneal (i.p.) administration at a screening dose of 100 mg/kg in mice at a time point of 0.5 h (the screening group consisted of four mice, and the results obtained are summarized in Table S1).
as §1
The adult male Albino Swiss mice weighed between 22 and 26 g were used in the in vivo studies. They were housed under standardized housing conditions in colony cages and had free access to food as well as tap water. The animals were left to adapt under laboratory conditions for 7 days. All procedures involving animals and their care were performed in accordance with the current European Community and Polish legislation on animal experimentation.
as §2, §3

GABA transaminase = biological target: T1, GABA transaminase (Rattus norvegicus, UniProt P50554); test: GABA transaminase assay; format: biochemical; details: rat brain, read-out: % inhibition of control specific binding
T1 construct: Eurofins (contract assay)
Procedure: Binding/functional studies were carried out commercially in Eurofins Laboratories (Poitiers, France) and Eurofins Panlabs Discovery Services Taiwan, Ltd. (New Taipei City, Taiwan) using testing procedures that were reported previously (for details, see Table S2).
Table S2. Radioligand binding and functional assays. […]
Potassium channel (hERG) […]
Assays were performed commercially in Eurofins Laboratories ( Poitiers, France) or Eurofins Panlabs Discovery Services
Taiwan, Ltd. (New Taipei City, Taiwan).

PTZ-kindled mice = test: Behavioral tests in PTZ-kindled mice (locomotor activity, elevated plus maze, forced swim test); format: in vivo
Procedure: As compared to the nonkindled control group, there were no changes in locomotor activity, as well as anxiety- and depressive-like behavior in the PTZ-kindled control group.
The procedure was performed as described in detail in our earlier studies.[15],[65] […] The seizure severity was scored using the modified Racine’s scale. […] 24 h after the last PTZ injection, animals were subjected to the locomotor activity test, the elevated plus maze test, and the forced swim test according to the methods described in detail elsewhere. After behavioral tests, animals were sacrificed and the brains were rapidly removed. Hippocampi and cortices were dissected, frozen, and stored at −80 °C until the assay of determination of GABA and glutamate concentration.
Figure S1. Acute effects of compound 26 (A) and 28 (B) on grip strength in mice. Both compounds were administered i.p. at a dose of 50 mg/kg, 30 min before the test. Control animals received vehicle. Data are presented as means ± SEM of grip strength expressed in mN/g of body weight (n = 10animals). The statistical significance was evaluated by a Student's t test (GraphPad Prism 8). […]
entries in the elevated plus maze test; (B) the percentage of the time spent in the open arms in the elevated plus maze test; (C) spontaneous locomotor activity; (D) total immobility duration in the forced swim test in mice subjected to the PTZ kindling procedure. PTZ (40 mg/kg, i.p.) was given three times a week, 30 min after […]
Behavioral tests were performed 24 h after the last PTZ injection. Data are shown as means ± SEM (n = 10–15 animals). The statistical significance was evaluated by one-way ANOVA followed by the Tukey’s post hoc test: *p < 0.05, (GraphPad Prism 8). […]

[3] = four mice, read-out: protection in 6 Hz (32 mA) screening
[4] = read-out: 6 Hz (32 mA): number of mice protected/number of mice tested (converted)

T1 sequence (P50554 28-500): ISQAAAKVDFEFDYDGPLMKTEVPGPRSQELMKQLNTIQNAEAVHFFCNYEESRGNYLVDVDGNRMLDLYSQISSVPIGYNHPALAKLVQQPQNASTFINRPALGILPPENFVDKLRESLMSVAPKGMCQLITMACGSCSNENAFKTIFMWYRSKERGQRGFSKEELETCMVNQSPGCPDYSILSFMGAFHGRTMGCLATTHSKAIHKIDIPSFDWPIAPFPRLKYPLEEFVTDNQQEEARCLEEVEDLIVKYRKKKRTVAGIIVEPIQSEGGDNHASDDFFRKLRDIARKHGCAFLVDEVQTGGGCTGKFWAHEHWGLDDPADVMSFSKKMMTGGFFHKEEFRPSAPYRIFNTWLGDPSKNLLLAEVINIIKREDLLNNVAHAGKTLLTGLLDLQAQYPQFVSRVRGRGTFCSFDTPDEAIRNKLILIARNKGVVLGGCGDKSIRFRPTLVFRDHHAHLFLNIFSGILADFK

CC(=O)NC(C)C(=O)N1CCN(c2cccc(C(F)(F)F)c2)CC1 (stereo not shown) [Compound 26, N-(1-oxo-1-(4-(3-(Trifluoromethyl)phenyl)piperazin-1-yl)propan-2-yl)acetamide] was tested, and the “protection in scPTZ screening” value (mice [1]) was 25%, the “scPTZ: number of mice protected/number of mice tested” value (mice [1]) was 1/4 and the responders at 100 mg/kg (mice [2]; [3]) was 100%. It also gave a responders at 100 mg/kg (mice [2]; [4]) of 100% and an ED50 (mice [2]) of 15.6 mg/kg.
CC(=O)NC(C)C(=O)N1CCN(c2cccc(OC(F)(F)F)c2)CC1 (stereo not shown) [Compound 28, N-(1-oxo-1-(4-(3-(Trifluoromethoxy)phenyl)piperazin-1-yl)propan-2-yl)acetamide] was tested, and the “protection in scPTZ screening” value (mice [1]) was 25%, the “scPTZ: number of mice protected/number of mice tested” value (mice [1]) was 1/4 and the responders at 100 mg/kg (mice [2]; [3]) was 100%. The responders at 100 mg/kg (mice [2]; [4]) was 100%, the ED50 (mice [2]) was 12.1 mg/kg and the inhibition at 100 µM (GABA transaminase) was -1.9%. The “decrease of total immobility duration in the forced swim test” value (PTZ-kindled mice; 10 and 20 mg/kg, vs PTZ-kindled control) was roughly 10% and the “locomotor activity and anxiety-related behavior” value (PTZ-kindled mice; repeated administration) was “did not affect”.
